What was measured:
[1] = Solubility by shake flask method, 37° C. (Example 6); assay type: physicochemical
Method: Solubility of the amorphous form and form I crystals of 9-ethyl-6,6-dimethyl-8-(4-morpholin-4-yl-piperidin-1-yl)-11-oxo-6,11-dihydro-5H-benzo[b]carbazole-3-carbonitrilemonohydrochloride was examined using a shake flask method (37° C.).

[2] = Solubility of compound A (form I crystals) in solvents (Example 2); assay type: physicochemical
Method: Solubility of 9-ethyl-6,6-dimethyl-8-(4-morpholin-4-yl-piperidin-1-yl)-11-oxo-6,11-dihydro-5H-benzo[b]carbazole-3-carbonitrilemonohydrochloride (hereinafter, a compound A) to each solvent was evaluated.
5 mL of each of the solvents described in Table 5 was added to 5 mg of form I crystals of the compound A. When undissolved crystals were observed, the mixture was stirred at room temperature and the crystals were dissolved using ultrasound (step 1). After the processing described, when undissolved crystals were observed the mixture was further stirred in a water bath at about 50° C. (step 2).
When the crystals were dissolved completely, the form I crystals of the compound A were further added (step 3).
The procedure of the steps 1 to 3 was repeated.
For CH2Cl2, the step 2 and the later step were performed at room temperature.

Compound: CCc1cc2c(cc1N1CCC(N3CCOCC3)CC1)C(C)(C)c1[nH]c3cc(C#N)ccc3c1C2=O.Cl [Form I crystal, 9-ethyl-6,6-dimethyl-8-(4-morpholin-4-yl-piperidin-1-yl)-11-oxo-6,11-dihydro-5H-benzo[b]carbazole-3-carbonitrilemonohydrochloride]
- Solubility ([1]; Acetate buffer pH 4.5, equilibration 1 hour): 0.4 µg/mL
- Solubility ([1]; Acetate buffer pH 4.5, equilibration 24 hours, limit of quantitation 0.0004 mg/mL): <Lower than limit of
- Solubility ([1]; First solution for dissolution test (Japanese Pharmacopoeia, 16th edition), equilibration 1 hour): 1.2 µg/mL
- Solubility ([1]; First solution for dissolution test (Japanese Pharmacopoeia, 16th edition), equilibration 24 hours): 1.3 µg/mL
- Solubility ([1]; Phosphate buffer pH 8.0, equilibration 1 hour, limit of quantitation 0.0004 mg/mL): <Lower than limit of
- Solubility ([1]; Phosphate buffer pH 8.0, equilibration 24 hours, limit of quantitation 0.0004 mg/mL): <Lower than limit of
- Solubility ([1]; Simulated intestinal fluid (SIFsp), equilibration 1 hour, limit of quantitation 0.0004 mg/mL): <Lower than limit of
- Solubility ([1]; Simulated intestinal fluid (SIFsp), equilibration 24 hours, limit of quantitation 0.0004 mg/mL): <Lower than limit of
- Solubility ([1]; Solution for dissolution test (4% Triton-X100 added to the first solution for dissolution test), equilibration 1 hour): 364.1 µg/mL
- Solubility ([1]; Solution for dissolution test (4% Triton-X100 added to the first solution for dissolution test), equilibration 24 hours): 410.2 µg/mL
- Solubility ([1]; Water, equilibration 1 hour): 28.6 µg/mL
- Solubility ([1]; Water, equilibration 24 hours): 25.1 µg/mL

Compound: CCc1cc2c(cc1N1CCC(N3CCOCC3)CC1)C(C)(C)c1[nH]c3cc(C#N)ccc3c1C2=O.Cl [compound A, 9-ethyl-6,6-dimethyl-8-(4-morpholin-4-yl-piperidin-1-yl)-11-oxo-6,11-dihydro-5H-benzo[b]carbazole-3-carbonitrilemonohydrochloride]
- Solubility of compound A in solvent (dissolved or not) ([2]; 1,4-dioxane, 1 mg/mL, about 50° C. while stirring): N/N (N: not dissolved)
- Solubility of compound A in solvent (dissolved or not) ([2]; 1,4-dioxane, 1 mg/mL, room temperature): N/N (N: not dissolved)
- Solubility of compound A in solvent (dissolved or not) ([2]; 70% EtOH, 1 mg/mL, room temperature): Y/— (Y: dissolved)
- Solubility of compound A in solvent (dissolved or not) ([2]; 70% EtOH, 2 mg/mL, room temperature): Y/— (Y: dissolved)
- Solubility of compound A in solvent (dissolved or not) ([2]; 70% EtOH, 4 mg/mL, room temperature): Y/— (Y: dissolved)
- Solubility of compound A in solvent (dissolved or not) ([2]; 70% EtOH, 6 mg/mL, about 50° C. while stirring): Y (Y: dissolved)
- Solubility of compound A in solvent (dissolved or not) ([2]; 70% EtOH, 6 mg/mL, room temperature): N (N: not dissolved)
- Solubility of compound A in solvent (dissolved or not) ([2]; 70% MeCN, 1 mg/mL, room temperature): Y/— (Y: dissolved)
- Solubility of compound A in solvent (dissolved or not) ([2]; 70% MeCN, 2 mg/mL, room temperature): Y/— (Y: dissolved)
- Solubility of compound A in solvent (dissolved or not) ([2]; 70% MeCN, 4 mg/mL, room temperature): Y/— (Y: dissolved)
- Solubility of compound A in solvent (dissolved or not) ([2]; 70% MeCN, 6 mg/mL, room temperature): Y/— (Y: dissolved)
- Solubility of compound A in solvent (dissolved or not) ([2]; 70% MeCN, 8 mg/mL, room temperature): Y/— (Y: dissolved)
- Solubility of compound A in solvent (dissolved or not) ([2]; 70% MeCN, 10 mg/mL, about 50° C. while stirring, *formation of solids was observed inside the test tube): Y (Y: dissolved)
- Solubility of compound A in solvent (dissolved or not) ([2]; 70% MeCN, 10 mg/mL, room temperature): N (N: not dissolved)
- Solubility of compound A in solvent (dissolved or not) ([2]; 70% MeOH, 1 mg/mL, room temperature): Y/— (Y: dissolved)
- Solubility of compound A in solvent (dissolved or not) ([2]; 70% MeOH, 2 mg/mL, room temperature): Y/— (Y: dissolved)
- Solubility of compound A in solvent (dissolved or not) ([2]; 70% MeOH, 4 mg/mL, about 50° C. while stirring): Y (Y: dissolved)
- Solubility of compound A in solvent (dissolved or not) ([2]; 70% MeOH, 4 mg/mL, room temperature): N (N: not dissolved)
- Solubility of compound A in THF (dissolved or not) ([2]; 70% THF, 1 mg/mL, room temperature): Y/— (Y: dissolved)
- Solubility of compound A in THF (dissolved or not) ([2]; 70% THF, 6 mg/mL, room temperature): Y/— (Y: dissolved)
- Solubility of compound A in THF (dissolved or not) ([2]; 70% THF, 8 mg/mL, room temperature): Y/— (Y: dissolved)
- Solubility of compound A in THF (dissolved or not) ([2]; 70% THF, 10 mg/mL, room temperature): Y/— (Y: dissolved)
- Solubility of compound A in THF (dissolved or not) ([2]; 70% THF, 12 mg/mL, room temperature): Y/— (Y: dissolved)
- Solubility of compound A in THF (dissolved or not) ([2]; 70% THF, 14 mg/mL, room temperature): Y/— (Y: dissolved)
- Solubility of compound A in solvent (dissolved or not) ([2]; 70% acetone, 1 mg/mL, room temperature): Y/— (Y: dissolved)
- Solubility of compound A in solvent (dissolved or not) ([2]; 70% acetone, 2 mg/mL, room temperature): Y/— (Y: dissolved)
- Solubility of compound A in solvent (dissolved or not) ([2]; 70% acetone, 4 mg/mL, room temperature): Y/— (Y: dissolved)
- Solubility of compound A in solvent (dissolved or not) ([2]; 70% acetone, 6 mg/mL, room temperature): Y/— (Y: dissolved)
- Solubility of compound A in solvent (dissolved or not) ([2]; 70% acetone, 8 mg/mL, about 50° C. while stirring): Y (Y: dissolved)
- Solubility of compound A in solvent (dissolved or not) ([2]; 70% acetone, 8 mg/mL, room temperature): N (N: not dissolved)
- Solubility of compound A in THF (dissolved or not) ([2]; 80% THF, 1 mg/mL, room temperature): Y/— (Y: dissolved)
- Solubility of compound A in THF (dissolved or not) ([2]; 80% THF, 4 mg/mL, room temperature): Y/— (Y: dissolved)
- Solubility of compound A in THF (dissolved or not) ([2]; 80% THF, 6 mg/mL, room temperature): Y/— (Y: dissolved)
- Solubility of compound A in THF (dissolved or not) ([2]; 80% THF, 8 mg/mL, room temperature): Y/— (Y: dissolved)
- Solubility of compound A in THF (dissolved or not) ([2]; 80% THF, 10 mg/mL, room temperature): Y/— (Y: dissolved)
- Solubility of compound A in THF (dissolved or not) ([2]; 80% THF, 12 mg/mL, room temperature): Y/— (Y: dissolved)
- Solubility of compound A in THF (dissolved or not) ([2]; 90% THF, 1 mg/mL, room temperature): Y/— (Y: dissolved)
- Solubility of compound A in THF (dissolved or not) ([2]; 90% THF, 3 mg/mL, room temperature): Y/— (Y: dissolved)
- Solubility of compound A in THF (dissolved or not) ([2]; 90% THF, 5 mg/mL, about 50° C. while stirring): N/N (N: not dissolved)
- Solubility of compound A in THF (dissolved or not) ([2]; 90% THF, 5 mg/mL, room temperature): N/N (N: not dissolved)
- Solubility of compound A in THF (dissolved or not) ([2]; 100% THF, 1 mg/mL, about 50° C. while stirring): N/N (N: not dissolved)
- Solubility of compound A in THF (dissolved or not) ([2]; 100% THF, 1 mg/mL, room temperature): N/N (N: not dissolved)
- Solubility of compound A in solvent (dissolved or not) ([2]; CH2Cl2, 1 mg/mL, room temperature): N/— (N: not dissolved)
- Solubility of compound A in solvent (dissolved or not) ([2]; DMSO, 1 mg/mL, room temperature): Y/— (Y: dissolved)
- Solubility of compound A in solvent (dissolved or not) ([2]; DMSO, 2 mg/mL, room temperature): Y/— (Y: dissolved)
- Solubility of compound A in solvent (dissolved or not) ([2]; DMSO, 4 mg/mL, about 50° C. while stirring): Y (Y: dissolved)
- Solubility of compound A in solvent (dissolved or not) ([2]; DMSO, 4 mg/mL, room temperature): N (N: not dissolved)
- Solubility of compound A in solvent (dissolved or not) ([2]; EtOAc, 1 mg/mL, about 50° C. while stirring): N/N (N: not dissolved)
- Solubility of compound A in solvent (dissolved or not) ([2]; EtOAc, 1 mg/mL, room temperature): N/N (N: not dissolved)
- Solubility of compound A in solvent (dissolved or not) ([2]; t-BuOH, 1 mg/mL, about 50° C. while stirring): N/N (N: not dissolved)
- Solubility of compound A in solvent (dissolved or not) ([2]; t-BuOH, 1 mg/mL, room temperature): N/N (N: not dissolved)

From patent US10344014B2, “Amorphous form of tetracyclic compound” (Chugai Seiyaku Kabushiki Kaisha, priority 2014, dated 2019)
